Publication PMC13210772, “Dual FLT3/MAPK14 Proteolysis-Targeting Chimera (PROTAC) Induces Potent Acute Myeloid Leukemia Cell Death” (Pharmaceuticals, 2026)

Key:
FLT3-ITD [1] = biological target: T1, FLT3-ITD (Homo sapiens, UniProt P36888, INS600HVDFREYEYD); test: FLT3-ITD degradation, immunoblot in MV4-11 cells; conditions: MV4-11, 24 h, read-out: % FLT3-ITD Degradation at 50 nM
T1 sequence (P36888 with tags, fused parts or gaps INS600HVDFREYEYD): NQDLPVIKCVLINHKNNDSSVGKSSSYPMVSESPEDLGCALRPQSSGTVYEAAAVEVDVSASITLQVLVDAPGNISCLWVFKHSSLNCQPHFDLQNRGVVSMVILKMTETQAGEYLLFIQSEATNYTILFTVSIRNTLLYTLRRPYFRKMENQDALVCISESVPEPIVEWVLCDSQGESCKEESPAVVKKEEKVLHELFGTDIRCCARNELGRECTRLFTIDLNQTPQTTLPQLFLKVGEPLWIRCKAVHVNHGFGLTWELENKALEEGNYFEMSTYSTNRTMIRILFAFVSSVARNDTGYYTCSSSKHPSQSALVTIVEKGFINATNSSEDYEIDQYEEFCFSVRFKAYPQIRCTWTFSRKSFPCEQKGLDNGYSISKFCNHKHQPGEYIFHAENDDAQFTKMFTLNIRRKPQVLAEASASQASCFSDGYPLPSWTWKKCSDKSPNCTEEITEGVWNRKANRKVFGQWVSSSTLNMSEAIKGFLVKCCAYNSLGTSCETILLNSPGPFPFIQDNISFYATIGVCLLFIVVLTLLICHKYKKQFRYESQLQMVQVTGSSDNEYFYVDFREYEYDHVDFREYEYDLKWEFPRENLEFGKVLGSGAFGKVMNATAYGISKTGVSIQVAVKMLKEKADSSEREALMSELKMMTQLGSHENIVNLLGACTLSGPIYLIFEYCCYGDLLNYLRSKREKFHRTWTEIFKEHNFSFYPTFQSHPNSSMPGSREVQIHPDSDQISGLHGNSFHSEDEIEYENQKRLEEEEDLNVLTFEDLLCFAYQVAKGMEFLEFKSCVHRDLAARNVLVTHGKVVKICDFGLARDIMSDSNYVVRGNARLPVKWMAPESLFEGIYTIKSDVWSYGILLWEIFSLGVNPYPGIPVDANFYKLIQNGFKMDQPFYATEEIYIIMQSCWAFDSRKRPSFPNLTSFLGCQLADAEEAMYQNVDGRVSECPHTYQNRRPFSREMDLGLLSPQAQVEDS

[2] = Non-enzymatic stability under cellular assay conditions (HPLC); type: physicochemical; conditions: compound remaining, assay medium DMEM, 37 °C
Experimental: An important aspect in the development of PROTACs is testing chemical stability. On the one hand, we tested all PROTACs produced for their stability under cellular assay conditions. For this purpose, 10 µM solutions of the PROTACs and reference inhibitor were incubated for 72 h at 37 °C with the assay medium DMEM. The remaining amount of the compounds was determined by HPLC after 6, 12, 24, 48 and 72 h. The results of the stability studies are shown in Table S2 (Supplementary Information).
The developed compounds were diluted in the assay media consisting of a mixture of DMEM (50%), DMSO (10%) and acetonitrile (40%) at pH 7.4 and incubated at 37 °C for 72 h. The quantity of the compounds was measured after 6, 12, 24, 48, and 72 h by HPLC using an XTerra RP18 column ([…], 3.9 mm × 100 mm) from the manufacturer Waters (Milford, MA, USA) and two LC-10AD pumps, an SPD-M10AVP PDA detector, and an SIL-HT autosampler, all from the manufacturer Shimadzu (Kyoto, Japan).

FLT3-ITD [3] = test: KINOMEscan binding assay
Experimental: Binding to FLT3-ITD was determined using the KINOMEscan^TM assay (Eurofins DiscoverX Corporation, San Diego, CA, USA)
Kinase-tagged T7 phage strains were prepared in an E. coli host derived from the BL21 strain. E. coli were grown to log-phase and infected with T7 phage and incubated with shaking at 32 °C until lysis. The lysates were centrifuged and filtered to remove cell debris. The remaining kinases were produced in HEK-293 cells and subsequently tagged with DNA for qPCR detection. […] The liganded beads were blocked with excess biotin and washed with blocking buffer (SeaBlock (Pierce), 1% BSA, 0.05% Tween 20, 1 mM DTT) to remove unbound ligand and to reduce non-specific binding. […] The compounds were then diluted directly into the assays such that the final concentration of DMSO was 0.9%. All reactions performed in polypropylene 384-well plate. Each was a final volume of 0.02 mL. […] The kinase concentration in the eluates was measured by qPCR.

CSNK1D = CSNK1D (Homo sapiens, UniProt P48730); test: NanoBRET CELLinib128
MV4-11 = system: MV4-11; design: method as in PMID 30427680, PMID 34959180, PMID 34694800, PMID 36332882, PMID 38655686; conditions: reported FLT3 PROTACs, Figure 1; cited from earlier work
MOLM-13 = system: MOLM-13; design: method as in PMID 30427680, PMID 34959180, PMID 34694800, PMID 36332882, PMID 38655686; conditions: reported FLT3 PROTACs, Figure 1; cited from earlier work

CSNK1D, sequence (P48730 whole entry): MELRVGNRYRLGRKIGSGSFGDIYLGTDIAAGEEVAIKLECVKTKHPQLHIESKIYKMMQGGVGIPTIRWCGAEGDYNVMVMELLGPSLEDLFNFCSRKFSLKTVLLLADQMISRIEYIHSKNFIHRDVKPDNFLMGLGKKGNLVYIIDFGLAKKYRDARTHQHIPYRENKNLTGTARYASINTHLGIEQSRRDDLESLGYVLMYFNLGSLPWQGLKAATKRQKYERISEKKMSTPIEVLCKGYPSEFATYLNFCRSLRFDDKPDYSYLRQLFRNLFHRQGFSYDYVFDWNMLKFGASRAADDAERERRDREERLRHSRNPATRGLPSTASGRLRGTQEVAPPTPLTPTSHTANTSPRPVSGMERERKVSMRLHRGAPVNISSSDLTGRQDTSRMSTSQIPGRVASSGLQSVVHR

Row | SMILES | inhibition at 0.05 µM (FLT3-ITD [1]) [%] | 0 h - % [2] [%] | 6 h- % [2] [%] | 12 h- % [2] [%] | 24 h- % [2] [%] | 48 h- % [2] [%] | 72 h- % [2] [%] | % FLT3-ITD Binding at 1 µM (FLT3-ITD [3]) [%] | EC50 (CSNK1D) [nM] | IC50 (MV4-11) [nM] | IC50 (MOLM-13) [nM]
1 | Cc1ncsc1-c1ccc([C@H](C)NC(=O)[C@@H]2C[C@@H](O)CN2C(=O)[C@@H](NC(=O)CCCCCCNC(=O)c2cc(Oc3ccc(NC(=O)Nc4cc(C(C)(C)C)on4)cc3)ccn2)C(C)(C)C)cc1 [MA77, 4-(4-(3-(5-(tert-Butyl)isoxazol-3-yl)ureido)phenoxy)-N-(7-(((S)-1-((2S,4R)-4-hydroxy-2-(((S)-1-(4-(4-methylthiazol-5-yl)phenyl)ethyl)carbamoyl)pyrrolidin-1-yl)-3,3-dimethyl-1-oxobutan-2-yl)amino)-7-oxoheptyl)picolinamide] | 80 | 100 | 99.6 | 99.6 | 99.9 | 100.5 | 100.7 | 89 ± 2 | – | – | –
2 | Cc1ncsc1-c1ccc([C@H](C)NC(=O)[C@@H]2C[C@@H](O)CN2C(=O)[C@@H](NC(=O)CCCCCNC(=O)c2cc(Oc3ccc(NC(=O)Nc4cc(C(C)(C)C)on4)cc3)ccn2)C(C)(C)C)cc1 [MA78, 4-(4-(3-(5-(tert-Butyl)isoxazol-3-yl)ureido)phenoxy)-N-(6-(((S)-1-((2S,4R)-4-hydroxy-2-(((S)-1-(4-(4-methylthiazol-5-yl)phenyl)ethyl)carbamoyl)pyrrolidin-1-yl)-3,3-dimethyl-1-oxobutan-2-yl)amino)-6-oxohexyl)picolinamide] | 80 | 100 | 99.5 | 99.5 | 99.9 | 100.6 | 101.0 | 89 ± 2 | – | – | –
3 | CN[C@@H]1C[C@H]2O[C@@](C)([C@@H]1OC)n1c3ccccc3c3c4c(c5c6ccccc6n2c5c31)C(=O)NC4 [Staurosporine] | – | – | – | – | – | – | – | – | 10400 | – | –
4 | Cc1c(NC(=O)CN2CCN(CC3CCN(c4ccc5c(c4)C(=O)N(C4CCC(=O)NC4=O)C5=O)CC3)CC2)c[nH]c1/C=C1\C(=O)Nc2ccc(F)cc21 (stereo not shown) [A20] | – | – | – | – | – | – | – | – | – | 39.9 ± 3.4 | 170 ± 3.4
5 | Nc1ccc(O)cc1 [compound 2] | – | – | – | – | – | – | – | – | – | 9.2 ± 1 | 9.5 ± 0.7
6 | Cc1ncsc1-c1ccc(CNC(=O)[C@@H]2C[C@@H](O)CN2C(=O)[C@@H](NC(=O)CCOCCOCCOc2ccc3c(c2)sc2nc(-c4ccc(NC(=O)Nc5cc(C(C)(C)C)on5)cc4)cn23)C(C)(C)C)cc1 [Quizaritinib-based PROTAC] | – | – | – | – | – | – | – | – | – | 0.6 ± 0.08 | –
7 | CNC(=O)c1cc(Cl)ccn1 [compound 1] | – | – | – | – | – | – | – | – | – | 18.7 ± 2.1 | 10.1 ± 1
8 | CCc1nc(C(N)=O)c(Nc2ccc(N3CCC(N4CCN(C(=O)COc5cccc6c5CN(C5CCC(=O)NC5=O)C6=O)CC4)CC3)c(OC)c2)nc1NC1CCOCC1 (stereo not shown) [LWY713] | – | – | – | – | – | – | – | – | – | 1.5 | –
9 | CCc1nc(C(N)=O)c(Nc2ccc(N3CCN(CCC4CCN(CC(=O)N[C@H](C(=O)N5C[C@H](O)C[C@H]5C(=O)N[C@@H](C)c5ccc(-c6scnc6C)cc5)C(C)(C)C)CC4)CC3)c(OC)c2)nc1NC1CCOCC1 [Z29] | – | – | – | – | – | – | – | – | – | 5.5 ± 0.2 | 8 ± 0.2
10 | Cc1ncsc1-c1ccc([C@H](C)NC(=O)[C@@H]2C[C@@H](O)CN2C(=O)[C@@H](NC(=O)CCOCCOCCNC(=O)c2cc(Oc3ccc(NC(=O)Nc4cc(C(C)(C)C)on4)cc3)ccn2)C(C)(C)C)cc1 [MA74, 4-(4-(3-(5-(tert-Butyl)isoxazol-3-yl)ureido)phenoxy)-N-(2-(2-(3-(((S)-1-((2S,4R)-4-hydroxy-2-(((S)-1-(4-(4-methylthiazol-5-yl)phenyl)ethyl)carbamoyl)pyrrolidin-1-yl)-3,3-dimethyl-1-oxobutan-2-yl)amino)-3-oxopropoxy)ethoxy)ethyl)picolinamide] | 90 | 100 | 101.4 | 101.4 | 101.8 | 102.6 | 103.1 | 89 ± 2 | – | – | –
11 | Cc1ncsc1-c1ccc([C@H](C)NC(=O)[C@@H]2C[C@@H](O)CN2C(=O)[C@@H](NC(=O)CCCCCCCNC(=O)c2cc(Oc3ccc(NC(=O)Nc4cc(C(C)(C)C)on4)cc3)ccn2)C(C)(C)C)cc1 [MA73, 4-(4-(3-(5-(tert-Butyl)isoxazol-3-yl)ureido)phenoxy)-N-(8-(((S)-1-((2S,4R)-4-hydroxy-2-(((S)-1-(4-(4-methylthiazol-5-yl)phenyl)ethyl)carbamoyl)pyrrolidin-1-yl)-3,3-dimethyl-1-oxobutan-2-yl)amino)-8-oxooctyl)picolinamide] | 80 | 100 | 101.2 | 101.3 | 102.2 | 103.3 | 106.1 | 84 ± 1 | – | – | –
